Paper PMC10511408, “Novel iodoquinazolinones bearing sulfonamide moiety as potential antioxidants and neuroprotectors” (Scientific Reports, 2023)
Where two headings read alike, the source gives them in different places.

Key:
[1] = Free radical scavenging activity (DPPH) assay; conditions: mean ± S.E (n = 3)
Method: The antioxidant activities of all newly synthesized compounds were measured as radical scavenging activities using 1,1-diphenyl-2-picrylhydrazyl (DPPH) (Sigma Chemical Co., Steinheim, Germany) and compared with ascorbic acid as a reference standard (Sigma-Aldrich Chemie GmbH, Taufkirchen, Germany)[46].
Where, 1 mL of the test compounds or ascorbic acid at concentrations (12.5, 25, 50 and 100 mg/mL) were mixed with 1 ml of the DPPH solution. The mixtures were incubated for 30 min at room temperature in dark. The absorbance was read using a JENWAY 6315 spectrophotometer (Keison Products, Chelmsford, England) at 517 nm against blank.
It was carried out in triplicate, and average values were used to determine the inhibitory percentage of DPPH according to the following equation: percent inhibition = [(B − A)/B]*100, where A is the absorbance of the compound or standard and B is the absorbance of blank. IC50 (µM) of each compound was calculated according to the nonlinear regression dose response-inhibition curve using Prism 5.03 (GraphPad, San Diego, CA, USA) and expressed as mean ± standard error (S.E).

[2] = molecular target: acetylcholine esterase (AChE) (Homo sapiens, UniProt P22303); experiment: biochemical
Sequence of acetylcholine esterase (AChE) (P22303 32-614): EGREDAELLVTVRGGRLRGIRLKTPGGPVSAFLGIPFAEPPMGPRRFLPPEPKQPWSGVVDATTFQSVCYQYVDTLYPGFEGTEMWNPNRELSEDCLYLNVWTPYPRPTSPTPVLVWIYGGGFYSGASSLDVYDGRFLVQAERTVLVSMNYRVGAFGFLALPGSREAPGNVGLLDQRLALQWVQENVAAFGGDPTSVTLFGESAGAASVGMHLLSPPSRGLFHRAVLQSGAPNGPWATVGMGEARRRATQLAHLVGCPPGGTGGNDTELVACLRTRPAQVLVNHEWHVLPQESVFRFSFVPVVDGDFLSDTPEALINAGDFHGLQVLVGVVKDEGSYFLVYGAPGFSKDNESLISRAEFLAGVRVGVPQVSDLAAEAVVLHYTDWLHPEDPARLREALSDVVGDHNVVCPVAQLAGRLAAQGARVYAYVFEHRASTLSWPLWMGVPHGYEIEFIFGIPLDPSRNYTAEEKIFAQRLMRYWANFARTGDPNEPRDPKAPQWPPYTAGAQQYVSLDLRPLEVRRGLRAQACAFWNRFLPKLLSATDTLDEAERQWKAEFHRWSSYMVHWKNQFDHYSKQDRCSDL
Method: The cholinesterase enzymes' inhibitory activity was evaluated using modified Osman et al.[45] method. Briefly, samples were initially dissolved in DMSO to achieve a concentration of 10 mg/mL. Then 0.1 mL of the sample was diluted to 1 mL methanol to reach the concentration of 1 mg/mL (concentration 1). From concentration (1), 0.1 mL was further diluted to 1 mL to reach the concentration of 0.1 mg/mL (concentration 2). Concentration 1 (1 mg/mL) will become 0.1 mg/mL inside the plate and concentration 2 will become 0.01 mg/mL due to the addition of the reagents of the assay that dilute the sample ten folds. […] Then 20 μL of the sample/standard solution was added followed by 140 μL of buffer (1). The mixture was allowed to stand for 15 min at room temperature.

[3] = test system: Acetylcholinesterase (AChE); experiment: AChE in brain tissue homogenate of irradiated mice (ELISA); assay type: in vivo; conditions: 14 at 30 mg/kg/day i.p. for 7 days, 5 Gy; compared to radiation only
Method: (§1) Twenty-one mice were blindly allocated into three groups (n = 7). The first group (control) was injected i.p. with 10% DMSO, daily, for 7 days. […]. A third group (Compound 14 + irradiation) received 30 mg/kg/day i.p. (1/10 LD50) of compound 14, daily for 7 days. Then on the last day, after 1 h of injection, animals were irradiated at a dose of 5 Gy. After 24 h. of the last injection, behavioral tests were carried out. […]. Then it was homogenized in ice-cold 0.1 M phosphate buffer saline (pH = 7.4) and stored at – 80 °C for subsequent biochemical analysis.
(§2) Brain homogenates were used for measuring AChE using Mouse Acetylcholinesterase (AChE) ELISA Kit content using the Mouse Acetylcholinesterase ELISA Kit from MyBioSource Cat.No. MBS260553 (San Diego, CA., USA) according to the manufacturer’s instructions. The generation of norepinephrine (NE) in brain tissues was measured using an Eliza kit (MBS2600834) from MyBioSource (San Diego, CA, USA) according to the manufacturer’s instructions.

[4] = Acute toxicity study (LD50); conditions: mouse, in vivo, ip; albino male mice, i.p.; read-out: LD50 (median lethal dose)
Method: Lethal dose fifty (LD50) was determined for the most promising compound 14 to estimate its acute toxicity in albino male mice. […] Consequently, one-tenth of this dose was selected as the therapeutic dose for further evaluation of the potential radioprotective effects of 14. This was following our previous studies[42],[63],[68].

Myeloperoxidase (MPO) = experiment: MPO in brain tissue homogenate of irradiated mice (ELISA); assay type: in vivo; conditions: 14 at 30 mg/kg/day i.p. for 7 days, 5 Gy; compared to irradiated mice
Method: (§3) Twenty-one mice were blindly allocated into three groups (n = 7). The first group (control) was injected i.p. with 10% DMSO, daily, for 7 days. The second one (irradiated) was treated as a control, and after 1 h from the last DMSO injection, the mice were exposed to 5 Gy gamma radiation. A third group (Compound 14 + irradiation) received 30 mg/kg/day i.p. (1/10 LD50) of compound 14, daily for 7 days. Then on the last day, after 1 h of injection, animals were irradiated at a dose of 5 Gy. After 24 h. of the last injection, behavioral tests were carried out. Immediately after behavioral test, mice were anesthetized using urethane ([…] i.p.)[49] and sacrificed by cervical dislocation then brain tissues were dissected out, rinsed with ice-cold saline, and dried on a filter paper. Then it was homogenized in ice-cold 0.1 M phosphate buffer saline (pH = 7.4) and stored at – 80 °C for subsequent biochemical analysis.
(§4) The antioxidant activity of compound 14 was measured by estimation of MPO activity using an ELISA Kit from MyBioSource Cat.No.: CSB-E08723m (Houston, TX., USA) as well as the level of GSH was evaluated using a colorimetric kit according to the method of E. Beutler[52].

Norepinephrine (NE) = experiment: Norepinephrine in brain tissue homogenate of irradiated mice (ELISA); assay type: in vivo; conditions: 14 at 30 mg/kg/day i.p. for 7 days, 5 Gy; Fig. 6B
Method: as §1, §2

Glutathione (GSH) = experiment: GSH level in brain tissue homogenate of irradiated mice; assay type: in vivo; conditions: 14 at 30 mg/kg/day i.p. for 7 days, 5 Gy; compared to irradiated mice
Method: as §3, §4

irradiated mice [5] = experiment: Forced swimming test in irradiated mice; assay type: in vivo; conditions: 14 at 30 mg/kg/day i.p. for 7 days before 5 Gy irradiation; compared to radiation only
Method: as §3
(§5) All behavioral tests have been carried out under blind conditions to avoid any bias in evaluating the animal's behavior. Mice were allowed to a pre-test session a day before scarification for habituation.
Mice were independently forced to swim in an open cylindrical container (22 cm diameter, 40 cm height) that contained water (23–25 °C).

irradiated mice [6] = experiment: Open field test in irradiated mice; assay type: in vivo; conditions: 14 at 30 mg/kg/day i.p. for 7 days before 5 Gy irradiation
Method: as §3, §5
This evaluates locomotors and exploratory activities in mice where, the apparatus is transparent walls and a white floor 30 × 30 × 15 cm, divided into 16 squares of equal area. Each mouse was placed in the center of the open field test apparatus and allowed to roam freely for 5 min and latency time (ie, time taken to start moving) was detected as well as locomotion frequency as ambulation (ie, number of squares crossed), rearing frequency (ie, number of times the mice stand on its hind legs or with its forearm against the wall or in the free air)[50].

[7] = in vitro, mean ± S.E (n = 3), read-out: AChE IC50

SMILES | IC50 [1] | IC50 [2, 7] | also measured
O=C1O[C@H]([C@@H](O)CO)C(O)=C1O [Ascorbic acid, ascorbic acid, reference compound] | 112.8 ± 1.03 µM |  | 
Cc1cc(NC(=O)CSc2nc3ccc(I)cc3c(=O)n2-c2ccc(S(N)(=O)=O)cc2)no1 [Compound 5, 2-(6-Iodo-4-oxo-3-(4-sulfamoylphenyl)-3,4-dihydroquinazolin-2-ylthio)-N-(5-methylisoxazol-3-yl) acetamide] | 149.8 ± 1.26 µM | > 0.1 µM | 
NS(=O)(=O)c1ccc(-n2c(SCC(=O)Nc3nccs3)nc3ccc(I)cc3c2=O)cc1 [Compound 6, 2-(6-Iodo-4-oxo-3-(4-sulfamoylphenyl)-3,4-dihydroquinazolin-2-ylthio)-N-(thiazol-2-yl) acetamide] | 143.4 ± 1.12 µM | > 0.1 µM | 
CCOc1ccc2nc(NC(=O)CSc3nc4ccc(I)cc4c(=O)n3-c3ccc(S(N)(=O)=O)cc3)sc2c1 [Compound 7, N-(6-Ethoxybenzo[d]thiazol-2-yl)-2-(6-iodo-4-oxo-3-(4-sulfamoylphenyl)-3,4-dihydroquinazolin-2-ylthio) acetamide] | 118.8 ± 0.92 µM | 0.09 ± 0.00583 µM | 
NS(=O)(=O)c1ccc(-n2c(SCC(=O)Nc3nc4ccc([N+](=O)[O-])cc4s3)nc3ccc(I)cc3c2=O)cc1 [Compound 8, 2-(6-Iodo-4-oxo-3-(4-sulfamoylphenyl)-3,4-dihydroquinazolin-2-ylthio)-N-(6-nitrobenzo[d]thiazol-2-yl) acetamide] | 177 ± 1.99 µM | > 0.1 µM | 
NS(=O)(=O)c1ccc(-n2c(SCC(=O)NN3CCOCC3)nc3ccc(I)cc3c2=O)cc1 [Compound 9, 2-(6-Iodo-4-oxo-3-(4-sulfamoylphenyl)-3,4-dihydroquinazolin-2-ylthio)-N-morpholinoacetamide] | 148 ± 1.53 µM | > 0.1 µM | 
CCOC(=O)N1CCC(NC(=O)CSc2nc3ccc(I)cc3c(=O)n2-c2ccc(S(N)(=O)=O)cc2)CC1 [Compound 10, Ethyl 4-(2-(6-iodo-4-oxo-3-(4-sulfamoylphenyl)-3,4-dihydroquinazolin-2-ylthio)acetamido) piperidine-1-carboxylate] | 154.9 ± 1.24 µM |  | IC50 [2]: > 0.1 µM
NS(=O)(=O)c1ccc(-n2c(SCC(=O)NC3CCN(Cc4ccccc4)CC3)nc3ccc(I)cc3c2=O)cc1 [Compound 11, N-(1-Benzylpiperidin-4-yl)-2-(6-iodo-4-oxo-3-(4-sulfamoylphenyl)-3,4-dihydroquinazolin-2-ylthio) acetamide] | 109 ± 1.09 µM | 0.0239 ± 0.00141 µM | 
CCOC(=O)c1ccccc1NC(=O)CSc1nc2ccc(I)cc2c(=O)n1-c1ccc(S(N)(=O)=O)cc1 [Compound 12, Ethyl 2-(2-(6-iodo-4-oxo-3-(4-sulfamoylphenyl)-3,4-dihydroquinazolin-2-ylthio)acetamido)benzoate] | 122.3 ± 0.92 µM | 0.0607 ± 0.0028 µM | 
CCOC(=O)c1cccc(NC(=O)CSc2nc3ccc(I)cc3c(=O)n2-c2ccc(S(N)(=O)=O)cc2)c1 [Compound 13, Ethyl 3-(2-(6-iodo-4-oxo-3-(4-sulfamoylphenyl)-3,4-dihydroquinazolin-2-ylthio)acetamido)benzoate] | 129.1 ± 1.03 µM | 0.0748 ± 0.00306 µM | 
NS(=O)(=O)c1ccc(-n2c(SCC(=O)Nc3cnccn3)nc3ccc(I)cc3c2=O)cc1 [Compound 14, 2-(6-Iodo-4-oxo-3-(4-sulfamoylphenyl)-3,4-dihydroquinazolin-2-ylthio)-N-(pyrazin-2-yl) acetamide] | 95.5 ± 1.67 µM | 0.0116 ± 0.00045 µM | decrease in brain AChE [3]: 21%; LD50 [4]: 300 mg/kg; decrease in brain MPO (Myeloperoxidase (MPO)): 39.6%; Norepinephrine (NE), effect of radiation abolished by (Norepinephrine (NE)): 25%; increase in brain GSH levels (Glutathione (GSH)): 17%; decrease in mean immobility time (forced swimming test) (irradiated mice [5]): 33%; ambulation (open field test), effect of radiation abolished by (irradiated mice [6]): 31%; open field parameters (latency, ambulation, rearing) (irradiated mice [6]): normalized all open field parameters; decrease in latency time (open field test) (irradiated mice [6]; compared with mice that received radiation alone): 72.4%
NS(=O)(=O)c1ccc(-n2c(SCC(=O)Nc3c[nH]c(=O)[nH]c3=O)nc3ccc(I)cc3c2=O)cc1 [Compound 15, N-(2,4-Dioxo-1,2,3,4-tetrahydropyrimidin-5-yl)-2-(6-iodo-4-oxo-3-(4-sulfamoylphenyl)-3,4-dihydroquinazolin-2-ylthio) acetamide] | 136.3 ± 1.3 µM | > 0.1 µM | 
Cn1c(NC(=O)CSc2nc3ccc(I)cc3c(=O)n2-c2ccc(S(N)(=O)=O)cc2)cc(=O)n(C)c1=O [Compound 16, N-(1,3-Dimethyl-2,6-dioxo-1,2,3,6-tetrahydropyrimidin-4-yl)-2-(6-iodo-4-oxo-3-(4-sulfamoylphenyl)-3,4-dihydroquinazolin-2-ylthio) acetamide] | 137.3 ± 0.29 µM | 0.0862 ± 0.00214 µM | 
CN1C(=O)c2ccc(NC(=O)CSc3nc4ccc(I)cc4c(=O)n3-c3ccc(S(N)(=O)=O)cc3)cc2C1=O [Compound 17, 2-(6-Iodo 4-oxo-3-(4-sulfamoylphenyl)-3,4-dihydroquinazolin-2-ylthio)-N-(2-methyl-1,3-dioxoisoindolin-5-yl) acetamide] | 127 ± 1.93 µM | 0.0774 ± 0.00129 µM | 
